Tests used:
primary cortical neurons = test: LDH release from cultured neurons after OGD; type: cell-based, mice; details: 10 μM, OGD 1 hour, pH 7.0
Description: Figure a illustrates cortical neurons staining from wild-type (ASIC1a+/+) and gene-deficient (ASIC1a−/−) mice primary cultures in the calcein-PI staining experiment. Blue green represents viable cells, and red represents dead cell nuclei. 10 μM CGS19755 and 10 μM LK-2 were added respectively in the cell culture medium under pH 7.0 conditions with OGD to be treated for 1 hour. Figure c illustrates, after being treated in the same experimental groups as Figure a, the analysis of each group of LDH of relative release levels. Figure d illustrates PI staining of ASIC1a-transfected CHO cells after 1 hour of treatment with pH 7.0 and 500 μM glutamate (Glu). Green represents green fluorescent protein (GFP), indicating ASIC1a-expressing CHO cells (GFP+), and red represents dead cell nuclei. The concentration of LK-2 was 10 μM. GFP-indicates ASIC1a-untransfected cells. […]
The LDH assay kit (Biyuntian) was used to measure the release of LDH from cultured neurons after 1 hour of oxygen-glucose deprivation (OGD). […] The absorbance of the target was measured at 490 nm wavelength using a spectrophotometer (Thermo Scientific), while the background absorbance was measured at 620 nm wavelength. […]

MCAO model = test: MCAO cerebral ischemia model, cerebral infarction volume (TTC staining); type: in vivo, mice; details: 30 mg/kg intraperitoneal; MCAO 30 minutes, 24 hours after ischemia
Description: Figure a illustrates the TTC staining results of brain slices obtained from animals sacrificed 24 hours after different drug treatments following MCAO ischemia for 30 minutes. The dark areas represent normal brain tissue, while the white areas represent infarcted brain tissue. CGS19755 was administered at a concentration of 1 mg/kg (intraperitoneal injection), PcTX-1 was administered at a concentration of 100 ng/kg (ASIC1a blocker, intranasal drip), LK-2 was administered at concentrations of 10 mg/kg or 30 mg/kg (intraperitoneal injection), and Saline was used as the control group. […] The specific steps are as follows: a transient focal ischemic model was formed by occluding the middle cerebral artery for 30 minutes in wild-type or ASIC1a gene knockout mice. The animals were anesthetized using the animal anesthesia machine (RWD). During the induction of anesthesia, the animals are placed in a transparent chamber (15×25×30 cm) containing 2% isoflurane. During the MCAO procedure, the animals are worn a mask delivering 1% isoflurane. Complete occlusion of the middle cerebral artery was confirmed using continuous laser Doppler blood flow measurement (Moor, FLPI-2). Animals with less than 50% reduction in blood flow during MCAO were excluded. […] In this test, mice were placed on the rotating rod and the time to fall was recorded. […]

O=C(O)C1CN(C(c2ccccc2)P(=O)(O)O)CCN1 (centres unmarked) [LK-2]
reduction of lactate dehydrogenase release (primary cortical neurons): 50% | reduction of volume of cerebral infarction (MCAO model): 52.8%

From patent US20250120988A1, “SMALL MOLECULE COMPOUND FOR TREATING ISCHEMIC STROKE, ITS PREPARATION METHOD, AND APPLICATION” (SHANGHAI SIXTH PEOPLE'S HOSPITAL, priority 2023, published 2025)
